Measurements reported in patent US20260283977A1, “ADIPOCYTE GROWTH INHIBITOR” (WATANABE OYSTER LABORATORY CO., LTD., priority 2023, published 2026).

Key:
3T3-L1 adipocytes [1] = experiment: Adipogenesis in 3T3-L1 adipocytes cultured with inhibitors of intracellular signaling pathways (AdipoRed); assay type: cell-based, mouse; details: for Lipogenesis/adipogenesis with the inhibitor alone: added two days after differentiation, cultured two days, genistein 1 or 10 μM, Wortmannin 10 or 100 nM, PD98059 1 or 10 μM, Bay 11-7082 1 or 10 nM, FIG. 6A-D
Procedure: (§1) In yet another experiment, to search for the involvement of intracellular signaling factors, the culture fluid was substituted with a culture fluid containing DMEM, which contained 10% FBS and insulin (10 μg/ml), and a vehicle (1% ethanol) or DHMBA (1 or 10 μM) two days after the differentiation culture. The cells were cultured for another two days in a culture fluid containing signaling inhibitory factors, such as genistein (1 or 10 μM), Wortmannin (10 or 100 nM), PD98059 (1 or 10 μM), or Bay 11-7082 (1 or 10 nM). After the cell culture, the amount of intracellular lipid (triglyceride) formation was quantified using AdipoRed Assay Reagent (Lonza, Walkersville, MD, USA) [19 to 21]. Fluorescence was measured at an excitation of 485 nm and an emission of 570 nm using a 96-well plate reader (μQuant, Bio-Tek Instruments).

3T3-L1 adipocytes [2] = experiment: Adipogenesis in 3T3-L1 adipocytes (AdipoRed Assay Reagent); assay type: cell-based, mouse
Procedure: 3T3-L1 preadipocytes (10^4 cells/0.2 ml per well of a 96-well plate) were cultured for three days, at which point they reached sub-confluence, in DMEM containing 10% BCS and 1% P/S. After the sub-confluence (on day 0), the cells were cultured in a differentiation-inducing culture fluid containing 10% FBS, 1% P/S, 0.5 mM IBMX, and 1 μM dexamethasone with the inclusion of a vehicle (1% ethanol as the final concentration) or DHMBA (0.1, 1, 10, or 100 μM). Two days later, the culture fluid was replaced with a DMEM culture fluid containing insulin (10 μg/ml) without containing 10% FBS or DHMBA, and then, the cells were cultured for another two days.
In another experiment, the cells were cultured in a differentiation culture fluid not containing DHMBA on day 0 of differentiation-inducing culture. Two days later, the culture fluid was replaced with a DMEM culture fluid containing 10% FBS and insulin (10 μg/ml) that contained any of a vehicle (1% ethanol as the final concentration) and DHMBA (0.1, 1, 10, or 100 μM), and then, the cells were cultured for another two days.
as §1

Akt = experiment: Western blotting, Akt level in 3T3-L1 adipocytes; assay type: cell-based, mouse; details: DHMBA 10 μM, day 2 to 4 of differentiation; FIG. 7
Procedure: (§2) 3T3-L1 preadipocytes (1×10^6 cells/100 mm dish used, in 10 ml of culture fluid) were cultured for three days, at which point they reached sub-confluence, in DMEM containing 10% BCS and 1% P/S. Then, the cells were cultured for two days in a DMEM differentiation culture fluid containing 10% FBS, 1% P/S, 0.5 mM IBMX, and 1 μM dexamethasone. […] After the culture, the culture dish was washed three times with cold PBS (10 ml) to eliminate floating cells and dead cells, and adhering cells were scraped using a cell lysis solution containing protease and protein phosphatase inhibitors (Roche Diagnostics, Indianapolis, IN, USA). Next, the cell lysates were centrifuged for 10 minutes at 17,000×g at 4° C. The concentration of proteins in the supernatant was quantified using Bio-Rad Protein Assay Dye (Bio-Rad Laboratories, Inc., Hercules, CA, USA) with bovine serum albumin as a standard. The extracted protein samples were stored at −80° C. until they were used. […]
(§3) After the incubation, the PVDF membrane was incubated at room temperature for 60 minutes in a horseradish peroxidase-conjugated secondary antibody (Santa Cruz Biotechnology, Inc., mouse sc-2005 or rabbit sc-2305; 1:1,000 dilution). Protein bands transferred to the PVDF membrane were detected on an X-ray film using a chemiluminescent substrate (catalog No. 34577, Thermo Scientific, Rockford, IL, USA). […]

PI3 kinase 100α = experiment: Western blotting, PI3 kinase 100α level in 3T3-L1 adipocytes; assay type: cell-based, mouse; details: DHMBA 10 μM, day 2 to 4 of differentiation; FIG. 7
Procedure: as §2, §3

3T3-L1 preadipocytes [3] = experiment: Number of cells in the differentiation process of 3T3-L1 preadipocytes; assay type: cell-based, mouse; details: DHMBA 1 or 10 μM
Procedure: After the culture, adhering cells were separated from each well by adding an aseptic solution containing 0.05% trypsin and EDTA (0.1 ml per well) in PBS (Thermo Fisher Scientific, Waltham, MA, USA) not containing Ca^2+/Mg^2+ and incubating the cells for two minutes. Afterward, 0.9 ml of DMEM containing 10% FBS was added to each well to prepare cell suspensions. In order to measure the number of living cells, a medium (0.1 ml) containing suspension cells was mixed with 0.1 ml of 0.5% trypan blue staining solution. The living cells were counted under a microscope (Olympus MTV-3) using a cell counter (Line Seiki H-102P, Tokyo, Japan) and a hemocytometer (Sigma-Aldrich, St. Louis, Missouri). Two counts were averaged in each measurement. The number of cells was shown as the number per well of a culture plate. […]
First, to quantify the effect of DHMBA on the number of cells, a vehicle (1% ethanol as the final concentration) or DHMBA (1 or 10 μM) was added to the differentiation-inducing culture fluid on day 0 of differentiation starting culture or after two days. After zero to two days of the differentiation culture or after two to four days of the culture, the number of cells adhered to a culture dish was measured as described in the previous section.

3T3-L1 adipocytes [4] = experiment: Lipid accumulation in 3T3-L1 adipocytes (Oil Red O staining); assay type: cell-based, mouse; details: DHMBA 0.1, 1, 10 or 100 μM on day 0 and after two days of differentiation culture
Procedure: In order to understand the influence of DHMBA on the differentiation of 3T3-L1 preadipocytes, 3T3-L1 preadipocytes (5×10^4 cells/ml per well of a 24-well plate) were cultured for three days, at which point they reached sub-confluence, in 10% bovine calf serum (BCS). After the cells reached sub-confluence (on day 0), the culture fluid was changed to a DMEM differentiation-inducing culture fluid containing 10% FBS, 1% P/S, 0.5 mM IBMX, 1 μM dexamethasone, and insulin (10 μg/ml), and the cells were cultured for another two days. […]
In an additional experiment to understand the effect of DHMBA on the content of lipids in 3T3-L1 adipocytes, a vehicle (1% ethanol as the final concentration) or DHMBA (0.1, 1, 10, or 100 μM) was included in the differentiation-inducing culture fluid to culture the cells from day 0 of the differentiation-inducing culture to four days later. In order to quantify the lipid content (triglycerides) after the cell culture, the cells in the 24-well plate were gently washed twice with PBS and fixed with 4% formaldehyde dissolved in PBS for 30 minutes. […] Furthermore, in order to quantify the lipid content, the Oil Red stain was extracted with isopropanol. […] The eluate was used to measure the absorbance at 510 nm with a spectrophotometer (μQuant, Bio-Tek Instruments).

PPARγ = experiment: Western blotting, PPARγ level in 3T3-L1 adipocytes; assay type: cell-based, mouse; details: DHMBA 10 μM, day 2 to 4 of differentiation; FIG. 7
Procedure: as §2, §3

[5] = test system: metastatic prostate cancer cells; details: earlier report, no details given; cited from earlier work
phosphorylated MAPK = experiment: Western blotting, phosphorylated MAPK level in 3T3-L1 adipocytes; assay type: cell-based, mouse; details: DHMBA 10 μM, day 2 to 4 of differentiation; FIG. 7
Procedure: as §2, §3

mTOR = experiment: Western blotting, mTOR level in 3T3-L1 adipocytes; assay type: cell-based, mouse; details: DHMBA 10 μM, day 2 to 4 of differentiation; FIG. 7
Procedure: as §2, §3

NF-κB p65 = experiment: Western blotting, NF-κB p65 level in 3T3-L1 adipocytes; assay type: cell-based, mouse; details: DHMBA 10 μM, day 2 to 4 of differentiation; FIG. 7
Procedure: as §2, §3

MAPK = experiment: Western blotting, MAPK level in 3T3-L1 adipocytes; assay type: cell-based, mouse; details: DHMBA 10 μM, day 2 to 4 of differentiation; FIG. 7
Procedure: as §2, §3

3T3-L1 preadipocytes [6] = experiment: Cell proliferation of 3T3-L1 preadipocytes (living cell count); assay type: cell-based, mouse
Procedure: […] Furthermore, in an experiment to measure cell proliferation, 3T3-L1 preadipocytes (1×10^5/ml per well of a 24-well plate) were cultured for three days in a culture fluid containing a vehicle (1% ethanol as the final concentration) or DHMBA (0.1, 1, 10, 100, or 1000 μM).
(§4) After the culture, adhering cells were separated from each well by adding an aseptic solution containing 0.05% trypsin and EDTA (0.1 ml per well) in PBS (Thermo Fisher Scientific, Waltham, MA, USA) not containing Ca^2+/Mg^2+ and incubating the cells for two minutes. Afterward, 0.9 ml of DMEM containing 10% FBS was added to each well to prepare cell suspensions. In order to measure the number of living cells, a medium (0.1 ml) containing suspension cells was mixed with 0.1 ml of 0.5% trypan blue staining solution. The living cells were counted under a microscope (Olympus MTV-3) using a cell counter (Line Seiki H-102P, Tokyo, Japan) and a hemocytometer (Sigma-Aldrich, St. Louis, Missouri). Two counts were averaged in each measurement. The number of cells was shown as the number per well of a culture plate.

3T3-L1 preadipocytes [7] = experiment: Cell death of sub-confluent 3T3-L1 preadipocytes (cell count); assay type: cell-based, mouse; details: sub-confluent cells cultured another two days; DHMBA 0.1-1000 μM tested, effect at 1000 μM; FIG. 2C
Procedure: In an experiment to measure cell death, 3T3-L1 preadipocytes (1×10^5/ml per well of a 24-well plate) were cultured for three days in a DMEM culture fluid containing 10% BCS and 1% P/S. The cells that reached sub-confluence were cultured for another 48 hours in the presence of a vehicle (1% ethanol as the final concentration) or DHMBA (0.1, 1, 10, 100, or 1000 μM) to examine the variation in the number of cells.
as §4

C/EBPα = experiment: Western blotting, C/EBPα level in 3T3-L1 adipocytes; assay type: cell-based, mouse; details: DHMBA 10 μM, day 2 to 4 of differentiation; FIG. 7
Procedure: as §2, §3

Cc1ccc(S(=O)(=O)/C=C/C#N)cc1 [Bay 11-7082, reference compound]
Lipogenesis/adipogenesis with the inhibitor alone (3T3-L1 adipocytes [1]): inhibited

COc1c(O)cc(CO)cc1O [DHMBA, 3,5-dihydroxy-4-methoxybenzyl alcohol]
Adipogenesis (intracellular lipid formation), DHMBA zero to four days after the differentiation (3T3-L1 adipocytes [2]; DHMBA 1, 10 or 100 μM (0.1 μM also tested), FIG. 5A): suppressed adipogenesis | Adipogenesis (intracellular lipid formation), DHMBA zero to two days after the differentiation (3T3-L1 adipocytes [2]; DHMBA 1, 10 or 100 μM, FIG. 5B): suppression was also observed | Adipogenesis (intracellular lipid formation), DHMBA two to four days after the differentiation (3T3-L1 adipocytes [2]; DHMBA 1, 10 or 100 μM, late stage, FIG. 5C): suppression was also observed | Akt protein level (Akt): reduction | Inhibition of adipogenesis in the presence of Bay 11-7082 (3T3-L1 adipocytes [1]; DHMBA 1 or 10 μM with Bay 11-7082 1 or 10 nM, FIG. 6D): further enhanced | Inhibition of adipogenesis in the presence of PD98059 (3T3-L1 adipocytes [1]; DHMBA 1 or 10 μM with PD98059 1 or 10 μM, FIG. 6C): further enhanced | Inhibition of adipogenesis in the presence of Wortmannin (3T3-L1 adipocytes [1]; DHMBA 1 or 10 μM with Wortmannin 10 or 100 nM, FIG. 6B): further enhanced | Adipogenesis in the presence of genistein (3T3-L1 adipocytes [1]; DHMBA 1 or 10 μM with genistein 1 or 10 μM, FIG. 6A): inhibited adipogenesis | PI3 kinase 100α protein level (PI3 kinase 100α): reduction | Number of cells, differentiation day 2 to 4 (3T3-L1 preadipocytes [3]; culture fluid containing insulin (10 μg/ml), another two days, FIG. 3C): not varied | Number of cells, differentiation day 0 to 2 (3T3-L1 preadipocytes [3]; differentiation-inducing culture fluid (IBMX, dexamethasone, insulin), two days, FIG. 3B): not varied | Lipid accumulation (Oil Red O stained images) (3T3-L1 adipocytes [4]; FIG. 4A): reduced lipid accumulation | Lipid (triglyceride) content in the cells (absorbance at 510 nm) (3T3-L1 adipocytes [4]; FIG. 4B): decrease was confirmed | PPARγ protein level (PPARγ): reduced | Proliferation of metastatic prostate cancer cells [5]: suppress the proliferation | Phosphorylated MAPK protein level (phosphorylated MAPK): reduction | mTOR protein level (mTOR): reduction | NF-κB p65 protein level (NF-κB p65): reduced | MAPK protein level (MAPK): reduction | Cell proliferation (number of cells), time course (3T3-L1 preadipocytes [6]; DHMBA 10 μM, cultured one to five days, effect at three to five days, FIG. 2A): suppressed | Cell proliferation (number of cells), concentration dependence (3T3-L1 preadipocytes [6]; cultured three days, DHMBA 0.1, 1, 10, 100 or 1000 μM, FIG. 2B): suppressed at concentrations ranging from 1 μM to 1000 μM | Cell death (number of cells) (3T3-L1 preadipocytes [7]): reduced | C/EBPα protein level (C/EBPα): reduced

COc1cccc(-c2cc(=O)c3ccccc3o2)c1N [PD98059, reference compound]
Lipogenesis/adipogenesis with the inhibitor alone (3T3-L1 adipocytes [1]): inhibited

COC[C@H]1OC(=O)c2coc3c2[C@@]1(C)C1=C(C3=O)[C@@H]2CCC(=O)[C@@]2(C)C[C@H]1OC(C)=O [Wortmannin, reference compound]
Lipogenesis/adipogenesis with the inhibitor alone (3T3-L1 adipocytes [1]): inhibited

O=c1c(-c2ccc(O)cc2)coc2cc(O)cc(O)c12 [genistein, reference compound]
Lipogenesis/adipogenesis with the inhibitor alone (3T3-L1 adipocytes [1]): not altered
